Assay results reported in ChEMBL document CHEMBL1201861, “Genomics of Drug Sensitity in Cancer screening data, Wellcome Trust Sanger Institute”.

Columns and labels:
Assay in all cases: cells
Details in all cases: Homo sapiens
[1] = tested on: ACN; format: functional, cell-based;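 further: growth inhibition of the human ACN cell line, read out via cell viability testing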
Description: SANGER: Inhibition of human ACN cell growth in a cell viability assay.

[2] = tested on: SF-539; format: functional, cell-based;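 further: Read-out is a cell viability assay, with IC50 reflecting inhibition of cell growth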
Description: SANGER: Inhibition of human SF539 cell growth in a cell viability assay.

[3] = tested on: A498; format: functional, cell-based;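 further: growth inhibition of human A498 cells, read out with a cell viability assay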
Description: SANGER: Inhibition of human A498 cell growth in a cell viability assay.

[4] = tested on: NMC-G1; format: functional, cell-based;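 further: growth inhibition of the NMC-G1 cell line, measured with a cell viability read-out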
Description: SANGER: Inhibition of human NMC-G1 cell growth in a cell viability assay.

[5] = tested on: NH-12; format: functional, cell-based;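 further: growth inhibition of NH-12 cells, read out with a cell viability assay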
Description: SANGER: Inhibition of human NH-12 cell growth in a cell viability assay.

[6] = tested on: COLO-829; format: functional, cell-based
Description: SANGER: Inhibition of human COLO-829 cell growth in a cell viability assay.

[7] = tested on: ALL-PO; format: functional, cell-based;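 further: growth inhibition of ALL-PO cells, read out by a cell viability assay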
Description: SANGER: Inhibition of human ALL-PO cell growth in a cell viability assay.

[8] = tested on: NB13; format: functional, cell-based;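 further: cell viability readout measuring growth inhibition of human NB13 cells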
Description: SANGER: Inhibition of human NB13 cell growth in a cell viability assay.

[9] = tested on: COR-L88; format: functional, cell-based;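 further: growth inhibition of COR-L88 cells, read out with a cell viability assay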
Description: SANGER: Inhibition of human COR-L88 cell growth in a cell viability assay.

[10] = tested on: QIMR-WIL; format: functional, cell-based;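 further: growth inhibition of QIMR-WIL cells, read out with a cell viability assay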
Description: SANGER: Inhibition of human QIMR-WIL cell growth in a cell viability assay.

[11] = tested on: BV-173; format: functional, cell-based
Description: SANGER: Inhibition of human BV-173 cell growth in a cell viability assay.

[12] = tested on: NCI-H23; format: functional, cell-based;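 further: cell viability assay measuring growth inhibition of NCI-H23 cells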
Description: SANGER: Inhibition of human NCI-H23 cell growth in a cell viability assay.

[13] = tested on: D-502MG; format: functional, cell-based
Description: SANGER: Inhibition of human D-502MG cell growth in a cell viability assay.

[14] = tested on: NCI-H1581; format: functional, cell-based;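 further: cell growth inhibition read out by a viability assay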
Description: SANGER: Inhibition of human NCI-H1581 cell growth in a cell viability assay.

[15] = tested on: CW-2; format: functional, cell-based;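 further: growth inhibition of CW-2 cells, read out by a cell viability assay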
Description: SANGER: Inhibition of human CW-2 cell growth in a cell viability assay.

[16] = tested on: EW-16; format: functional, cell-based;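 further: growth inhibition of human EW-16 cells, read out as cell viability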
Description: SANGER: Inhibition of human EW-16 cell growth in a cell viability assay.

[17] = tested on: KGN; format: functional, cell-based;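 further: growth inhibition of KGN cells, read out with a cell viability assay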
Description: SANGER: Inhibition of human KGN cell growth in a cell viability assay.

[18] = tested on: NCI-H226; format: functional, cell-based;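 further: cell viability read-out used to gauge growth inhibition of the cells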
Description: SANGER: Inhibition of human NCI-H226 cell growth in a cell viability assay.

[19] = tested on: A3-KAW; format: functional, cell-based;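 further: growth inhibition of human A3-KAW cells, read out with a cell viability assay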
Description: SANGER: Inhibition of human A3-KAW cell growth in a cell viability assay.

[20] = tested on: CAS-1; format: functional, cell-based;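 further: growth inhibition of CAS-1 cells, measured with a cell viability assay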
Description: SANGER: Inhibition of human CAS-1 cell growth in a cell viability assay.

[21] = tested on: EW-18; format: functional, cell-based;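 further: growth inhibition of EW-18 cells, read out by a cell viability assay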
Description: SANGER: Inhibition of human EW-18 cell growth in a cell viability assay.

[22] = tested on: EW-3; format: functional, cell-based;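 further: cell viability assay read-out, IC50 reflects inhibition of growth of the EW-3 cells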
Description: SANGER: Inhibition of human EW-3 cell growth in a cell viability assay.

[23] = tested on: U-87 MG; format: functional, cell-based, U-87MG ATCC;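 further: growth inhibition of the cells measured with a viability assay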
Description: SANGER: Inhibition of human U-87-MG cell growth in a cell viability assay.

[24] = tested on: A4-Fuk; format: functional, cell-based;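 further: growth inhibition of A4-Fuk cells, read out by a cell viability assay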
Description: SANGER: Inhibition of human A4-Fuk cell growth in a cell viability assay.

[25] = tested on: NCI-H209; format: functional, cell-based;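 further: growth inhibition of human NCI-H209 cells, measured by a cell viability assay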
Description: SANGER: Inhibition of human NCI-H209 cell growth in a cell viability assay.

[26] = tested on: SJSA-1; format: functional, cell-based;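 further: growth inhibition of human SJSA-1 cells, read out through a cell viability measurement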
Description: SANGER: Inhibition of human SJSA-1 cell growth in a cell viability assay.

[27] = tested on: LS-411N; format: functional, cell-based
[28] = tested on: SW872; format: functional, cell-based;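 further: growth inhibition of SW872 cells, read out by a viability assay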
Description: SANGER: Inhibition of human SW872 cell growth in a cell viability assay.

[29] = tested on: MPP-89; format: functional, cell-based;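 further: growth inhibition of human MPP-89 cells, read out with a cell viability assay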
Description: SANGER: Inhibition of human MPP-89 cell growth in a cell viability assay.

[30] = tested on: CTB-1; format: functional, cell-based
Description: SANGER: Inhibition of human CTB-1 cell growth in a cell viability assay.

[31] = tested on: SW684; format: functional, cell-based;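 further: growth inhibition of human SW684 cells, measured by a cell viability assay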
Description: SANGER: Inhibition of human SW684 cell growth in a cell viability assay.

[32] = tested on: 8-MG-BA; format: functional, cell-based;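 further: growth inhibition of 8-MG-BA cells, read out with a cell viability assay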
Description: SANGER: Inhibition of human 8-MG-BA cell growth in a cell viability assay.

[33] = tested on: P30-OHK; format: functional, cell-based;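 further: growth inhibition of the P30-OHK cell line, read out with a cell viability assay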
Description: SANGER: Inhibition of human P30-OHK cell growth in a cell viability assay.

[34] = tested on: BB65-RCC; format: functional, cell-based;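 further: growth inhibition of the cell line, measured with a cell viability assay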
Description: SANGER: Inhibition of human BB65-RCC cell growth in a cell viability assay.

[35] = tested on: LC-2-ad; format: functional, cell-based;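 further: growth inhibition of human LC-2-ad cells, read out with a cell viability assay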
Description: SANGER: Inhibition of human LC-2-ad cell growth in a cell viability assay.

[36] = tested on: HCE-4; format: functional, cell-based;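 further: cell viability assay measuring inhibition of growth in the human HCE-4 cell line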
Description: SANGER: Inhibition of human HCE-4 cell growth in a cell viability assay.

[37] = tested on: HOP-62; format: functional, cell-based;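 further: cell growth inhibition determined with a viability assay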
Description: SANGER: Inhibition of human HOP-62 cell growth in a cell viability assay.

[38] = tested on: D283 Med; format: functional, cell-based
Description: SANGER: Inhibition of human D-283MED cell growth in a cell viability assay.

[39] = tested on: HCE-T; format: functional, cell-based;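 further: cell viability assay read-out, reporting inhibition of HCE-T cell growth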
Description: SANGER: Inhibition of human HCE-T cell growth in a cell viability assay.

[40] = tested on: TE-11; format: functional, cell-based;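 further: growth inhibition of human TE-11 cells, read out by a cell viability assay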
Description: SANGER: Inhibition of human TE-11 cell growth in a cell viability assay.

[41] = tested on: ML-2; format: functional, cell-based;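 further: growth inhibition of ML-2 cells, measured with a cell viability readout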
Description: SANGER: Inhibition of human ML-2 cell growth in a cell viability assay.

[42] = tested on: KM12; format: functional, cell-based;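 further: KM12 cell growth inhibition, read out with a cell viability assay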
Description: SANGER: Inhibition of human KM12 cell growth in a cell viability assay.

[43] = tested on: LS-123; format: functional, cell-based
Description: SANGER: Inhibition of human LS-123 cell growth in a cell viability assay.

[44] = tested on: NB69; format: functional, cell-based;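 further: growth inhibition of NB69 cells, determined by a cell viability assay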
Description: SANGER: Inhibition of human NB69 cell growth in a cell viability assay.

[45] = tested on: MFH-ino; format: functional, cell-based;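 further: growth inhibition of human MFH-ino cells, read out by a cell viability assay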
Description: SANGER: Inhibition of human MFH-ino cell growth in a cell viability assay.

[46] = tested on: LB2241-RCC; format: functional, cell-based;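 further: cell viability assay measuring how strongly the cultured human renal carcinoma line is prevented from growing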
Description: SANGER: Inhibition of human LB2241-RCC cell growth in a cell viability assay.

[47] = tested on: PSN1; format: functional, cell-based;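 further: suppression of growth of human PSN1 cells, read out by a cell viability assay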
Description: SANGER: Inhibition of human PSN1 cell growth in a cell viability assay.

[48] = tested on: NCI-H2126; format: functional, cell-based;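 further: growth inhibition of the cancer cell line, determined with a cell viability readout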
Description: SANGER: Inhibition of human NCI-H2126 cell growth in a cell viability assay.

[49] = tested on: SNU-5; format: functional, cell-based;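 further: cell viability readout used to measure growth inhibition in human NCI-SNU-5 cells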
Description: SANGER: Inhibition of human NCI-SNU-5 cell growth in a cell viability assay.

[50] = tested on: K5; format: functional, cell-based
Description: SANGER: Inhibition of human K5 cell growth in a cell viability assay.

[51] = tested on: DOHH-2; format: functional, cell-based;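 further: growth inhibition of human DOHH-2 cells, read out with a cell viability assay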
Description: SANGER: Inhibition of human DOHH-2 cell growth in a cell viability assay.

[52] = tested on: OS-RC-2; format: functional, cell-based;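 further: growth inhibition of human OS-RC-2 cells, measured by a cell viability assay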
Description: SANGER: Inhibition of human OS-RC-2 cell growth in a cell viability assay.

[53] = tested on: ES7; format: functional, cell-based;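 further: growth inhibition of cultured human ES7 cells, read out as cell viability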
Description: SANGER: Inhibition of human ES7 cell growth in a cell viability assay.

[54] = tested on: EM-2; format: functional, cell-based;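 further: growth inhibition of EM-2 cells, read out with a cell viability assay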
Description: SANGER: Inhibition of human EM-2 cell growth in a cell viability assay.

[55] = tested on: TE-1; format: functional, cell-based;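 further: growth inhibition of the human TE-1 cell line, read out with a cell viability assay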
Description: SANGER: Inhibition of human TE-1 cell growth in a cell viability assay.

[56] = tested on: LU-139; format: functional, cell-based
Description: SANGER: Inhibition of human LU-139 cell growth in a cell viability assay.

[57] = tested on: LS-1034; format: functional, cell-based
Description: SANGER: Inhibition of human LS-1034 cell growth in a cell viability assay.

[58] = tested on: IA-LM; format: functional, cell-based;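 further: cell viability assay measuring growth inhibition of human IA-LM cells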
Description: SANGER: Inhibition of human IA-LM cell growth in a cell viability assay.

[59] = tested on: HT-144; format: functional, cell-based
Description: SANGER: Inhibition of human HT-144 cell growth in a cell viability assay.

[60] = tested on: SK-LMS-1; format: functional, cell-based
Description: SANGER: Inhibition of human SK-LMS-1 cell growth in a cell viability assay.

[61] = tested on: COLO-668; format: functional, cell-based
Description: SANGER: Inhibition of human COLO-668 cell growth in a cell viability assay.

[62] = tested on: EW-1; format: functional, cell-based
Description: SANGER: Inhibition of human EW-1 cell growth in a cell viability assay.

[63] = tested on: TE-8; format: functional, cell-based
Description: SANGER: Inhibition of human TE-8 cell growth in a cell viability assay.

[64] = tested on: MHH-NB-11; format: functional, cell-based
Description: SANGER: Inhibition of human MHH-NB-11 cell growth in a cell viability assay.

[65] = tested on: LB771-HNC; format: functional, cell-based
Description: SANGER: Inhibition of human LB771-HNC cell growth in a cell viability assay.

[66] = tested on: BB30-HNC; format: functional, cell-based
Description: SANGER: Inhibition of human BB30-HNC cell growth in a cell viability assay.

Measured: IC50

Cn1cc(/C=C2\C(=O)Nc3cccnc32)c2ccccc21
> 2 µM: [2] | [3] | [4] | [5] | [6] | [7] | [8] | [9] | [10] | [11] | [12] | [13] | [14] | [15] | [16] | [17] | [18] | [19] | [20] | [21] | [22] | [23] | [24] | [25] | [26] | [27] | [28] | [29] | [30] | [31] | [32] | [33] | [34] | [35] | [36] | [38] | [39] | [40] | [41] | [43] | [44] | [45] | [46] | [47] | [48] | [49] | [50] | [51] | [52] | [53] | [54] | [55] | [56] | [57] | [58] | [59] | [60] | [61] | [62] | [63] | [64] | [65] | [66]
0.322 µM: [37]
0.865 µM: [1]
1.94 µM: [42]

N#C/C(=C1/Nc2ccccc2S1)c1ccnc(NCCc2cccnc2)n1
5.85 µM: [17]
2.91 µM: [63]
4.75 µM: [33]
5.01 µM: [16]
7.35 µM: [39]
4.47 µM: [61]
7.38 µM: [60]
6.71 µM: [34]
2.73 µM: [58]
6.12 µM: [4]
1.79 µM: [7]
3.68 µM: [32]
1.32 µM: [28]
0.3 µM: [40]
5.2 µM: [29]
> 8 µM: [1] | [2] | [3] | [5] | [6] | [8] | [9] | [10] | [11] | [12] | [13] | [14] | [15] | [18] | [19] | [20] | [21] | [22] | [23] | [24] | [25] | [26] | [27] | [30] | [31] | [35] | [36] | [37] | [38] | [41] | [42] | [43] | [44] | [45] | [46] | [47] | [48] | [49] | [50] | [51] | [52] | [54] | [55] | [56] | [57] | [59] | [62] | [64] | [65] | [66]
3.03 µM: [53]
